Source: PMC10272112 (Nature Communications, 2023)

How the values were obtained:
Experiment in all cases: Chemoproteomic competition pulldown assay (co-competed CoREST partner)
Assay type in all cases: binding
[1] = system: RCOR3
Description: (§1) To identify proteins directly bound by lipoic acid, we employed a chemoproteomic competition assay. Briefly, (R/S)-LA was immobilized on sepharose beads via an amidation reaction to form an affinity matrix (abbreviated as iL; Fig. 1a). This affinity matrix can be incubated with cell lysate to pull down potential LA or LM target proteins and identify these targets via bottom-up proteomics. In a competition assay, free LA or LM were incubated with lysate at different concentrations before pulling down and quantifying target proteins. […] (Fig. 1b, see “Methods” for details). […] The lysate buffer used in this assay contains 1 mM DTT to mimic the intracellular reductive milieu and to reduce lipoic acid and LM. […] Additional competition assays performed in lung adenocarcinoma cell A549 lysate also identified HDAC1, HDAC2, and HDAC6 as targets (Supplementary Fig. 1b). Amongst the three cell lines tested, HDACs were the only confidently identified targets across the 1500–3000 proteins quantified in these assays. […] We validated the results by analogous pulldown competition assays using two other affinity matrices prepared via the immobilization of either the HDAC inhibitor Quisinostat (iQ) and an analog of the class IIa HDAC inhibitor Bürli’s 31[14] (iC)[12]. We have previously shown that these affinity matrices specifically bind to the active sites of HDACs and have used them for HDACi selectivity profiling. Indeed, binding of (R/S)-LA and (R/S)-LM to HDAC1, HDAC2, HDAC3, HDAC6, and, to a lesser extent, HDAC8 was confirmed in these assays (Supplementary Fig. 1c, d). No binding to class IIa HDACs or the recently discovered common HDAC inhibitor off-target MBLAC2 was observed (Supplementary Fig. 1e)[12]. […] This observation might reflect electrostatic repulsion between the HDAC10 active site gate-keeper glutamic acid residues[15],[16] and the terminal carboxylic acid of LA.
(§2) To assess the degree of protein depletion from lysates by the affinity matrix, a second pulldown (PDPD) with fresh beads was performed using the unbound protein fraction from the vehicle control flow through. The beads were washed (1 × 1 mL of lysis buffer without inhibitors and only 0.4% Igepal, 2 × 2 mL of lysis buffer without inhibitors and only 0.2% Igepal), and captured proteins were denatured with 8 M urea buffer, alkylated with 55 mM chloroacetamide and digested with Trypsin according to standard procedures. The resulting peptides were desalted on a C18 filter plate (Sep-Pak® tC18 µElution Plate, Waters), vacuum dried, and stored at −20 °C until LC–MSMS measurement.
(§3) For the competition assays, relative binding was calculated based on the protein intensity ratio to the DMSO control for every single inhibitor concentration. EC50 values were derived from a four-parameter log-logistic regression with variable slope (constrain: bottom > 0). The obtained EC50 values were multiplied with a protein-dependent correction factor (cf), resulting in the apparent Kd value (Kd^app). The correction factor is determined by calculating the ratio of the protein intensity of two consecutive pulldowns of the vehicle control sample[13]. Targets of the inhibitors were annotated manually according to published procedures[12],[46],[47]. […] Additionally, the number of unique peptides and MSMS counts per condition were taken into account. Positive target binding across several independent experiments performed with different cell lysates further substantiated our confidence for a true positive drug-target binding event.

[2] = system: GSE1
Description: as §1, §2, §3

[3] = system: HMG20B; conditions: iL, MV4-11 lysate
Description: as §1, §2, §3

[4] = system: RCOR1; conditions: iL, MV4-11 lysate
Description: as §1, §2, §3

[5] = system: KDM1A
Description: as §1, §2, §3

[6] = iL, MV4-11 lysate, log10 M -3.52288
[7] = iL, MV4-11 lysate, log10 M -4.52288
[8] = iL, MV4-11 lysate, log10 M -5.52288
[9] = iL, MV4-11 lysate, log10 M -6.52288
[10] = iQ, SW620 lysate, log10 M -3.52288
[11] = iQ, SW620 lysate, log10 M -4.52288
[12] = iQ, SW620 lysate, log10 M -5.52288
[13] = iQ, SW620 lysate, log10 M -6.52288

In the case of NC(=O)CCCCC1CCSS1 (racemic) [(R/S)-LM, (R/S)-lipoamide], the “relative binding vs DMSO” value [1, 6] was 0.04482, the “relative binding vs DMSO” value ([1]; iL, MV4-11 lysate, log10 M -4) was 0.03145 and the “relative binding vs DMSO” value [1, 7] was 0.2203. The “relative binding vs DMSO” value ([1]; iL, MV4-11 lysate, log10 M -5) was 0.5854, the “relative binding vs DMSO” value [1, 8] was 0.7487 and the “relative binding vs DMSO” value ([1]; iL, MV4-11 lysate, log10 M -6) was 1.237. For the same molecule, the “relative binding vs DMSO” value [1, 9] was 1.016, the “relative binding vs DMSO” value ([1]; iL, MV4-11 lysate, log10 M -7) was 0.9839 and the “relative binding vs DMSO” value [1, 10] was 0.0548. For the same molecule, the “relative binding vs DMSO” value ([1]; iQ, SW620 lysate, log10 M -4) was 0.3164, the “relative binding vs DMSO” value [1, 11] was 0.4259 and the “relative binding vs DMSO” value ([1]; iQ, SW620 lysate, log10 M -5) was 0.6647. For the same molecule, the “relative binding vs DMSO” value [1, 12] was 0.7959, the “relative binding vs DMSO” value ([1]; iQ, SW620 lysate, log10 M -6) was 1.1558 and the “relative binding vs DMSO” value [1, 13] was 0.7323. For the same molecule, the “relative binding vs DMSO” value ([1]; iQ, SW620 lysate, log10 M -7) was 0.9341, the “relative binding vs DMSO” value [2, 6] was 0.03208 and the “relative binding vs DMSO” value ([2]; iL, MV4-11 lysate, log10 M -4) was 0.05802. For the same molecule, the “relative binding vs DMSO” value [2, 7] was 0.1417, the “relative binding vs DMSO” value ([2]; iL, MV4-11 lysate, log10 M -5) was 0.4933 and the “relative binding vs DMSO” value [2, 8] was 0.6793. The “relative binding vs DMSO” value ([2]; iL, MV4-11 lysate, log10 M -6) was 0.8351, the “relative binding vs DMSO” value [2, 9] was 0.9265 and the “relative binding vs DMSO” value ([2]; iL, MV4-11 lysate, log10 M -7) was 0.8883. The “relative binding vs DMSO” value [2, 10] was 0.1386, the “relative binding vs DMSO” value ([2]; iQ, SW620 lysate, log10 M -4) was 0.1278 and the “relative binding vs DMSO” value [2, 11] was 0.3991. The “relative binding vs DMSO” value ([2]; iQ, SW620 lysate, log10 M -5) was 0.559, the “relative binding vs DMSO” value [2, 12] was 0.8469 and the “relative binding vs DMSO” value ([2]; iQ, SW620 lysate, log10 M -6) was 1.003. For the same molecule, the “relative binding vs DMSO” value [2, 13] was 0.8631, the “relative binding vs DMSO” value ([2]; iQ, SW620 lysate, log10 M -7) was 0.9076 and the “relative binding vs DMSO” value ([3]; log10 M -3.52288) was 0.0242. For the same molecule, the “relative binding vs DMSO” value ([3]; log10 M -4) was 0.0521, the “relative binding vs DMSO” value ([3]; log10 M -4.52288) was 0.1443 and the “relative binding vs DMSO” value ([3]; log10 M -5) was 0.4724. The “relative binding vs DMSO” value ([3]; log10 M -5.52288) was 0.6292, the “relative binding vs DMSO” value ([3]; log10 M -6) was 0.8935 and the “relative binding vs DMSO” value ([3]; log10 M -6.52288) was 0.8513. For the same molecule, the “relative binding vs DMSO” value ([3]; log10 M -7) was 1.055, the “relative binding vs DMSO” value ([4]; log10 M -3.52288) was 0.05785 and the “relative binding vs DMSO” value ([4]; log10 M -4) was 0.0548. For the same molecule, the “relative binding vs DMSO” value ([4]; log10 M -4.52288) was 0.1462, the “relative binding vs DMSO” value ([4]; log10 M -5) was 0.4201 and the “relative binding vs DMSO” value ([4]; log10 M -5.52288) was 0.5816. For the same molecule, the “relative binding vs DMSO” value ([4]; log10 M -6) was 0.5592, the “relative binding vs DMSO” value ([4]; log10 M -6.52288) was 0.7783 and the “relative binding vs DMSO” value ([4]; log10 M -7) was 0.8248. For the same molecule, the “relative binding vs DMSO” value [5, 6] was 0.06889, the “relative binding vs DMSO” value ([5]; iL, MV4-11 lysate, log10 M -4) was 0.07597 and the “relative binding vs DMSO” value [5, 7] was 0.1867. The “relative binding vs DMSO” value ([5]; iL, MV4-11 lysate, log10 M -5) was 0.4972, the “relative binding vs DMSO” value [5, 8] was 0.6394 and the “relative binding vs DMSO” value ([5]; iL, MV4-11 lysate, log10 M -6) was 0.7472. The “relative binding vs DMSO” value [5, 9] was 0.8335, the “relative binding vs DMSO” value ([5]; iL, MV4-11 lysate, log10 M -7) was 0.9817 and the “relative binding vs DMSO” value [5, 10] was 0.09916. For the same molecule, the “relative binding vs DMSO” value ([5]; iQ, SW620 lysate, log10 M -4) was 0.186, the “relative binding vs DMSO” value [5, 11] was 0.3209 and the “relative binding vs DMSO” value ([5]; iQ, SW620 lysate, log10 M -5) was 0.6955. For the same molecule, the “relative binding vs DMSO” value [5, 12] was 0.8479, the “relative binding vs DMSO” value ([5]; iQ, SW620 lysate, log10 M -6) was 0.9866 and the “relative binding vs DMSO” value [5, 13] was 0.7392. The “relative binding vs DMSO” value ([5]; iQ, SW620 lysate, log10 M -7) was 0.6643.
